From patent US20090304692A1, “TRIAZINE COMPOUNDS AS PI3 KINASE AND MTOR INHIBITORS” (Wyeth, priority 2008, published 2009)
“And” between values parts separate entries of the source, which are not always exact repeats. Identical values can stand only once. Like-named read-outs stand apart in the source and are kept apart here.

Assays:
[1] = tested on: human prostate LNCap tumor cell line; assay: In vitro cell culture growth assay (MTS), LNCap; conditions: read-out: IC50 LNCap
[2] = target: PI3K-γ (Homo sapiens, UniProt P48736); assay: PI3K-gamma fluorescence polarization assay
PI3K-γ, sequence (P48736 whole entry, species assumed): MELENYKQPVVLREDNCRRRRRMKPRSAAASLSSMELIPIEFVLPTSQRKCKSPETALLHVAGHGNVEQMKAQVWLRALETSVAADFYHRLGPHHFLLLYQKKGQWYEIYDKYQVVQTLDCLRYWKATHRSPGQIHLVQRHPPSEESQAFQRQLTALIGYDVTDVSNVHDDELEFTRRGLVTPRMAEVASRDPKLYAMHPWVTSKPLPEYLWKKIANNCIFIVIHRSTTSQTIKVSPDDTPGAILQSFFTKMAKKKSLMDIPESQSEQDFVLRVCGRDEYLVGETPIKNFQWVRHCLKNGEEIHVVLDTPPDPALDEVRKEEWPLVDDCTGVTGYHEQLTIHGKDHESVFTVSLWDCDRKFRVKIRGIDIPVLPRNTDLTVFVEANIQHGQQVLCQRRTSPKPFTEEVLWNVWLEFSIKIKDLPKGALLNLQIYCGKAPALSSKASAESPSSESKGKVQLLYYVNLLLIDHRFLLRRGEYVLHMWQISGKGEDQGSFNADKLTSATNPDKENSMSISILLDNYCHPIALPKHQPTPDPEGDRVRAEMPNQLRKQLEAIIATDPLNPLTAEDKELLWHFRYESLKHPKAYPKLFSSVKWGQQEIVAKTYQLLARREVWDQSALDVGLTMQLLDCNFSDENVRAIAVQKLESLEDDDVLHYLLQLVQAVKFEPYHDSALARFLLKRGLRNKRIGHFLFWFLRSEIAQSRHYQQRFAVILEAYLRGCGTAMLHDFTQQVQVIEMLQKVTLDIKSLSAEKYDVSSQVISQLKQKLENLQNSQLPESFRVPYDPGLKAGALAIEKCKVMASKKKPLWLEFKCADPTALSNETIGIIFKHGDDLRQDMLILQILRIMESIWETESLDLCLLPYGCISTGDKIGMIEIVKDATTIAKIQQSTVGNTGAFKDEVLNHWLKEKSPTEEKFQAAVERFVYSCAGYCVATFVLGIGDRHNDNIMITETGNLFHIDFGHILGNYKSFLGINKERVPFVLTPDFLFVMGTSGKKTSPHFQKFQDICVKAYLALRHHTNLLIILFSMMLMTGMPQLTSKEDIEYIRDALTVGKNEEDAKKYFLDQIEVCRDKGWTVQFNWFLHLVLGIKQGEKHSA

[3] = target: PI3K-α (Homo sapiens, UniProt P42336); assay: PI3K-alpha fluorescence polarization assay
PI3K-α, sequence (P42336 whole entry, species assumed): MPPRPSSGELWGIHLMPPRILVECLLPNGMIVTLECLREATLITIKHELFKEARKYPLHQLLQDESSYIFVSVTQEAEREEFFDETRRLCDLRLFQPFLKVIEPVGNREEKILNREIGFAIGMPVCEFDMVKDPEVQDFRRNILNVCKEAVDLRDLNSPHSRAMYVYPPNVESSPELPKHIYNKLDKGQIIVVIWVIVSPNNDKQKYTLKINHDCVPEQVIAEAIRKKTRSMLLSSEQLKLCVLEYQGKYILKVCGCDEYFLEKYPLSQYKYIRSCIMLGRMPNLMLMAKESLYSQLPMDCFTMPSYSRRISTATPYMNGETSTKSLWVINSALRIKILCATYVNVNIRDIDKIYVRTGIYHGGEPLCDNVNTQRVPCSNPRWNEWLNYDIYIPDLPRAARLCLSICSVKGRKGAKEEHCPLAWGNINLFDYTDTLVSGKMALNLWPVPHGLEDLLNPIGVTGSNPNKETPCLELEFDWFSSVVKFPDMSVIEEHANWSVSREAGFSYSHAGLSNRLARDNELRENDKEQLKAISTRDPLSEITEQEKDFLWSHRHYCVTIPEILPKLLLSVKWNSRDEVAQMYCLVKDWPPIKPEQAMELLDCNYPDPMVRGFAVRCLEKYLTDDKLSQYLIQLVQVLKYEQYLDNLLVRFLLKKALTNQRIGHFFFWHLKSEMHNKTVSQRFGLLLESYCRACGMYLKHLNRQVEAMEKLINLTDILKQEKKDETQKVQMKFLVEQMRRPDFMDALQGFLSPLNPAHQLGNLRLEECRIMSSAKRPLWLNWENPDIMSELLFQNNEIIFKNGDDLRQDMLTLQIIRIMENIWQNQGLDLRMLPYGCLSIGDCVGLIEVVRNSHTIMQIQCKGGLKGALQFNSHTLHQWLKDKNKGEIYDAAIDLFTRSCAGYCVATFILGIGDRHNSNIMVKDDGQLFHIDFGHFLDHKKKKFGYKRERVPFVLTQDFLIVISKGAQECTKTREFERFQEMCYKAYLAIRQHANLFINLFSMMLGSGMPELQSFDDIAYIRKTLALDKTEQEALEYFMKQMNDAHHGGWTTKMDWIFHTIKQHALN
PI3K-α, sequence (P27986 whole entry partner, species assumed): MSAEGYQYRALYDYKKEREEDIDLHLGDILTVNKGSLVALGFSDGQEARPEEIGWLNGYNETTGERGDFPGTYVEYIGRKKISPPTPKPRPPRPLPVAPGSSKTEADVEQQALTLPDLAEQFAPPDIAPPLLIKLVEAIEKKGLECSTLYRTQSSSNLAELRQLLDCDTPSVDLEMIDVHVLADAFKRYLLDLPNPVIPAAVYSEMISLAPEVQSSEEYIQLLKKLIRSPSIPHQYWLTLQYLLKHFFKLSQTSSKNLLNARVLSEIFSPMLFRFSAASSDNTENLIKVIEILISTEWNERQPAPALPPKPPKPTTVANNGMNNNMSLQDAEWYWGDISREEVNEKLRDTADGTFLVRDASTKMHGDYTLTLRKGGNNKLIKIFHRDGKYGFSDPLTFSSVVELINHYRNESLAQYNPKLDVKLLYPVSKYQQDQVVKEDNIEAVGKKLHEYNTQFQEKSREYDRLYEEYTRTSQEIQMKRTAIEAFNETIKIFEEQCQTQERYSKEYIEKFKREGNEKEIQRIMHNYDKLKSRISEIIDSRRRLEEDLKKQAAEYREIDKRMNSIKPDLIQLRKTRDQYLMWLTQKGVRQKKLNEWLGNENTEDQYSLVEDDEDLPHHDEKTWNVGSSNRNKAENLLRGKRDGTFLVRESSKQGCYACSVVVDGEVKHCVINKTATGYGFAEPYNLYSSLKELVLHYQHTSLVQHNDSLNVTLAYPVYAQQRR

[4] = target: Human mTOR (FLAG-TOR) (Homo sapiens, UniProt P42345); assay: mTOR kinase assay (DELFIA format, purified enzyme); format: biochemical; conditions: read-out: IC50 mTOR
Human mTOR (FLAG-TOR), sequence (P42345 1360-2549 limits assumed): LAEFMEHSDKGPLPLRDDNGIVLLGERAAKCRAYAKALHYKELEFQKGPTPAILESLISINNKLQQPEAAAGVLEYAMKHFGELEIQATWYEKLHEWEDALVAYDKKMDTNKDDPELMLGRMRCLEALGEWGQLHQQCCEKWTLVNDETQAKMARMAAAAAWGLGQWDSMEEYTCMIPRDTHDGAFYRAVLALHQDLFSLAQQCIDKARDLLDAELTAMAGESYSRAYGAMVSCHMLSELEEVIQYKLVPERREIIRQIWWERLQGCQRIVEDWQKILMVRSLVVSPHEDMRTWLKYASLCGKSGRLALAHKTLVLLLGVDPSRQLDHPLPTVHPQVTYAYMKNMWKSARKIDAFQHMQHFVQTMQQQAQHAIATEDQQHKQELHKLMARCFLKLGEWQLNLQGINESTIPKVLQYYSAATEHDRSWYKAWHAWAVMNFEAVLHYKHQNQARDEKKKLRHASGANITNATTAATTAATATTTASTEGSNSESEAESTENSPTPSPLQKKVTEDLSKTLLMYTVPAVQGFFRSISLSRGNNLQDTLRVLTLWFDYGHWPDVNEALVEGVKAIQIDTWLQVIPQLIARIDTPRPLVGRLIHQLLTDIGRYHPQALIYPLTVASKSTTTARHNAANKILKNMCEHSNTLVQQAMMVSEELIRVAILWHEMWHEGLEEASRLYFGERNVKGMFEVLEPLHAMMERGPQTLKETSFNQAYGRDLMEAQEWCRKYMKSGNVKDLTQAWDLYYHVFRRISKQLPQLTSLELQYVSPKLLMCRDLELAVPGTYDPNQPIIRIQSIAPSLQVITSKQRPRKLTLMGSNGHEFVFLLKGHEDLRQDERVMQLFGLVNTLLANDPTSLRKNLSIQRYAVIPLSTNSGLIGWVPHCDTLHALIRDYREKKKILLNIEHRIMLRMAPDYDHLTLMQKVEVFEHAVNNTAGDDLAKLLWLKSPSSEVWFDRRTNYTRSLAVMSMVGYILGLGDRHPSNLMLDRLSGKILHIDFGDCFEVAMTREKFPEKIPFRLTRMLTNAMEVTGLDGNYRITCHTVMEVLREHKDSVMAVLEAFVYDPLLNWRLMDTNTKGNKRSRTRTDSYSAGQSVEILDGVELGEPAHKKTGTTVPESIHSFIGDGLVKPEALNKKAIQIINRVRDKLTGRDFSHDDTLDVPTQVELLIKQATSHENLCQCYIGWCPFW

[5] = MTS cell growth assay, three days after drug treatment

Row | Compound | IC50 ([1]; Homo sapiens, LNCaP, 72 h) [µM] | IC50 ([2]; read-out: IC50 PI3Kγ) [µM] | IC50 ([3]; read-out: IC50 PI3Kα) [µM] | IC50 [4] | IC50 ([2]; read-out: IC50 PI3Kγ, listed as 717) [µM] | IC50 [1, 5] [µM] | IC50 [2] [µM] | IC50 [3] [µM]
1 | O=C(Nc1ccncc1)Nc1ccc(-c2nc(N3CCC(O)CC3)nc(N3CC4CCC(C3)O4)n2)cc1 [Example 116, 1-{4-[4-(4-hydroxypiperidin-1-yl)-6-(8-oxa-3-azabicyclo[3.2.1]oct-3-yl)-1,3,5-triazin-2-yl]phenyl}-3-pyridin-4-ylurea] | 0.07 | 2.31 | 1.74 | 0.0027 µM | – | – | – | –
2 | C[C@@H]1COCCN1c1nc(-c2ccc(NC(=O)Nc3ccc(OCCN(C)C)cc3)cc2)nc(N2CCOC[C@H]2C)n1 [Example 402, 1-(4-(4,6-bis((R)-3-methylmorpholino)-1,3,5-triazin-2-yl)phenyl)-3-(4-(2-(dimethylamino)ethoxy)phenyl)urea] | 0.007 | 3.64 | 0.543 | 0.0018 µM | – | – | – | –
3 | CC(C)Nc1nc(-c2ccc(NC(=O)Nc3ccc(N4CCC(N(C)C)CC4)cc3)cc2)nc(N2C3CCC2COC3)n1 [Example 388, 1-(4-(4-(3-oxa-8-azabicyclo[3.2.1]octan-8-yl)-6-(isopropylamino)-1,3,5-triazin-2-yl)phenyl)-3-(4-(4-(dimethylamino)piperidin-1-yl)phenyl)urea] | 0.11 | 4.29 | 3.45 | 0.0048 µM | – | – | – | –
4 | O=C(Nc1ccc(-c2nc(N3CCSCC3)nc(N3C4CCC3COC4)n2)cc1)Nc1cccnc1 [Example 392, 1-(4-(4-(3-oxa-8-azabicyclo[3.2.1]octan-8-yl)-6-thiomorpholino-1,3,5-triazin-2-yl)phenyl)-3-(pyridin-3-yl)urea] | 0.48 | 2.78 | 1.18 | 0.0055 µM | – | – | – | –
5 | CC(C)Nc1nc(-c2ccc(NC(=O)Nc3ccncc3)cc2)nc(N2C3CCC2COC3)n1 [Example 377, 1-(4-(4-(3-oxa-8-azabicyclo[3.2.1]octan-8-yl)-6-(isopropylamino)-1,3,5-triazin-2-yl)phenyl)-3-(pyridin-4-yl)urea] | 0.09 | 4.72 | 2.61 | 0.0039 µM | – | – | – | –
6 | CCNc1nc(-c2ccc(NC(=O)Nc3cccnc3)cc2)nc(N2CC3CCC(C2)O3)n1 [Example 191, 1-{4-[4-(ethylamino)-6-(8-oxa-3-azabicyclo[3.2.1]oct-3-yl)-1,3,5-triazin-2-yl]phenyl}-3-pyridin-3-ylurea] | 0.22 | 4.63 | 0.435 | 0.016 µM | – | – | – | –
7 | O=C(Nc1ccncc1)Nc1ccc(-c2nc(N3C4CCC3COC4)nc(N3C4CCC3COC4)n2)cc1 [Example 224, 1-[4-(4,6-di-3-oxa-8-azabicyclo[3.2.1]oct-8-yl-1,3,5-triazin-2-yl)phenyl]-3-pyridin-4-ylurea] | < 0.0008 | 5.87 | 0.444 | 0.0004 µM and 0.000395 µM | 5.87 | – | – | –
8 | O=C(CN1CCCC1)Nc1ccc(NC(=O)Nc2ccc(-c3nc(N4CC5CCC(C4)O5)nc(N4CC5CCC(C4)O5)n3)cc2)cc1 [Example 353, N-[4-({[4-(4,6-di-8-oxa-3-azabicyclo[3.2.1]oct-3-yl-1,3,5-triazin-2-yl)phenyl]carbamoyl}amino)phenyl]-2-pyrrolidin-1-ylacetamide] | < 0.0008 | 0.501 | 0.0085 | 0.00022 µM | – | – | – | –
9 | CNC(=O)Nc1ccc(-c2nc(NC(C)C)nc(N3CC4CCC(C3)O4)n2)cc1 [Example 212, 1-methyl-3-(4-{4-[(1-methylethyl)amino]-6-(8-oxa-3-azabicyclo[3.2.1]oct-3-yl)-1,3,5-triazin-2-yl}phenyl)urea] | 0.42 | 8.77 | 0.902 | 0.0064 µM | – | – | – | –
10 | 1-(4-(4-(3-oxa-8-azabicyclo[3.2.1]octan-8-yl)-6-(piperidin-4-ylamino)-1,3,5-triazin-2-yl)phenyl)-3-ethylurea [Example 364] | – | 8.04 | 1.47 | 0.0035 µM | – | 0.07 | – | –
11 | CC(=O)N1CCN(c2nc(-c3ccc(NC(=O)Nc4ccncc4)cc3)nc(N3CC4CCC(C3)O4)n2)CC1 [Example 111, 1-{4-[4-(4-acetylpiperazin-1-yl)-6-(8-oxa-3-azabicyclo[3.2.1]oct-3-yl)-1,3,5-triazin-2-yl]phenyl}-3-pyridin-4-ylurea] | 0.058 | 1.83 | 0.116 | 0.0023 µM | – | – | – | –
12 | CC(C)N1CCN(C(=O)c2ccc(NC(=O)Nc3ccc(-c4nc(C5CCOCC5)nc(N5CCOC[C@H]5C)n4)cc3)cc2)CC1 [Example 432, (R)-1-(4-(4-isopropylpiperazine-1-carbonyl)phenyl)-3-(4-(4-(3-methylmorpholino)-6-(tetrahydro-2H-pyran-4-yl)-1,3,5-triazin-2-yl)phenyl)urea] | < 0.0008 | 0.48 | 0.09 | 0.00069 µM | – | – | – | –
13 | O=C(Nc1ccc(-c2nc(Nc3ccccc3)nc(N3CC4CCC(C3)O4)n2)cc1)Nc1cccnc1 [Example 150, 1-{4-[4-anilino-6-(8-oxa-3-azabicyclo[3.2.1]oct-3-yl)-1,3,5-triazin-2-yl]phenyl}-3-pyridin-3-ylurea] | 0.29 | – | – | 0.005 µM | – | – | > 10 | 0.832
14 | CN1CCN(CC(=O)Nc2ccc(NC(=O)Nc3ccc(-c4nc(N5CC6CCC(C5)O6)nc(N5CC6CCC(C5)O6)n4)cc3)cc2)CC1 [Example 509, N-[4-({[4-(4,6-di-8-oxa-3-azabicyclo[3.2.1]oct-3-yl-1,3,5-triazin-2-yl)phenyl]carbamoyl}amino)phenyl]-2-(4-methylpiperazin-1-yl)acetamide] | < 0.0008 | 0.662 | 0.0115 | 0.00045 µM | – | – | – | –
15 | NC(=O)CNC1CCN(c2nc(-c3ccc(NC(=O)Nc4ccncc4)cc3)nc(N3CC4CCC(C3)O4)n2)CC1 [Example 126, 2-(1-(4-(8-oxa-3-azabicyclo[3.2.1]octan-3-yl)-6-(4-(3-pyridin-4-ylureido)phenyl)-1,3,5-triazin-2-yl)piperidin-4-ylamino)acetamide] | 1.3 | 5.51 | 0.51 | 0.0195 µM | – | – | – | –
16 | C[C@@H]1COCCN1c1nc(-c2ccc(NC(=O)Nc3ccc(N4CCN(C)CC4)cc3)cc2)nc(N2CCOC[C@H]2C)n1 [Example 399, 1-(4-(4,6-bis((R)-3-methylmorpholino)-1,3,5-triazin-2-yl)phenyl)-3-(4-(4-methylpiperazin-1-yl)phenyl)urea] | 0.003 | 1.69 | 0.33 | 0.0011 µM | – | – | – | –
17 | 1-(4-(4-(3-oxa-8-azabicyclo[3.2.1]octan-8-yl)-6-(piperidin-4-ylamino)-1,3,5-triazin-2-yl)phenyl)-3-ethylurea [Example 361] | – | > 10 | 6.03 | 0.0013 µM | – | 0.0022 | – | –
18 | CC(C)(C)OC(=O)CNC1CCN(c2nc(-c3ccc(NC(=O)Nc4ccncc4)cc3)nc(N3CC4CCC(C3)O4)n2)CC1 [Example 127, Tert-butyl 2-(1-(4-(8-oxa-3-azabicyclo[3.2.1]octan-3-yl)-6-(4-(3-pyridin-4-ylureido)phenyl)-1,3,5-triazin-2-yl)piperidin-4-ylamino)acetate] | 1.35 | 4.73 | 1.39 | 0.0515 µM | – | – | – | –
19 | CC(C)Nc1nc(-c2ccc(NC(=O)Nc3ccc(CN4CCNCC4)cc3)cc2)nc(N2C3CCC2COC3)n1 [Example 380, 1-(4-(4-(3-oxa-8-azabicyclo[3.2.1]octan-8-yl)-6-(isopropylamino)-1,3,5-triazin-2-yl)phenyl)-3-(4-(piperazin-1-ylmethyl)phenyl)urea] | 0.3 | 3.56 | 3.34 | 0.0051 µM | – | – | – | –
20 | CN1CCN(c2ccc(Nc3nc(-c4ccc(NC(=O)NC5CC5)cc4)nc(N4CC5CCC(C4)O5)n3)cc2)CC1 [Example 316, 1-cyclopropyl-3-{4-[4-{[4-(4-methylpiperazin-1-yl)phenyl]amino}-6-(8-oxa-3-azabicyclo[3.2.1]oct-3-yl)-1,3,5-triazin-2-yl]phenyl}urea] | 0.32 | 2.69 | 1.41 | 0.071 µM and 0.011 µM | – | – | – | –
21 | NCc1ccc(NC(=O)Nc2ccc(-c3nc(N4C5CCC4COC5)nc(N4C5CCC4COC5)n3)cc2)cc1 [Example 368, 1-(4-(aminomethyl)phenyl)-3-(4-(4,6-di(3-oxa-8-azabicyclo[3.2.1]octan-8-yl)-1,3,5-triazin-2-yl)phenyl)urea] | 0.0007 | 1.94 | 0.109 | 0.00068 µM | – | – | – | –
22 | COCC(COC)Oc1nc(-c2ccc(NC(=O)Nc3ccncc3)cc2)nc(N2CC3CCC(C2)O3)n1 [Example 174, 1-(4-{4-[2-methoxy-1-(methoxymethyl)ethoxy]-6-(8-oxa-3-azabicyclo[3.2.1]oct-3-yl)-1,3,5-triazin-2-yl}phenyl)-3-pyridin-4-ylurea] | 0.00425 | 0.727 | 0.861 | 0.0021 µM | – | – | – | –
23 | CNc1nc(-c2ccc(NC(=O)Nc3cccnc3)cc2)nc(N2CC3CCC(C2)O3)n1 [Example 190, 1-{4-[4-(methylamino)-6-(8-oxa-3-azabicyclo[3.2.1]oct-3-yl)-1,3,5-triazin-2-yl]phenyl}-3-pyridin-3-ylurea] | 0.95 | 1.32 | 0.78 | 0.0063 µM | – | – | – | –
24 | C[C@@H]1COCCN1c1nc(-c2ccc(NC(=O)Nc3ccc(C(=O)N4CCN(C)CC4)cc3)cc2)nc(N2CCOC[C@H]2C)n1 [Example 450, 1-(4-(4,6-bis((R)-3-methylmorpholino)-1,3,5-triazin-2-yl)phenyl)-3-(4-(4-methylpiperazine-1-carbonyl)phenyl)urea] | < 0.0008 | 0.888 | 0.076 | 0.0017 µM | – | – | – | –
